Test results from patent publication US9271984B2, “Treatment of type 1 diabetes” (POXEL, priority 2010, dated 2016).

Tested on: rat pancreatic islets
Assay: Protective effect on beta cell death: quantification of cytoplasmic nucleosomes (apoptosis, Cell Death Detection ELISA) in cultured rat islets with or without cytokine cocktail
Assay type: cell-based
Experimental: Male Wistar rat islets (Elevage Janvier, Le Genest-St-Isle, France) were isolated using collagenase (Serva, Heidelberg, Germany) and cultured in RPMI at 11 mM glucose (Invitrogen, CA, USA) supplemented with 10% FCS (Fetal Calf Serum), 100 Units/ml penicillin, 100 μg/ml streptomycin and 100 μg/ml gentamycin in low-attachment 24-well plates (Corning, NY, USA). These islets were incubated with a cocktail of rat cytokines (TNF-alpha, IL-1beta and INF-gamma each at 2 ng/ml) for 24 hours (Brun T. et al., 2004 and 2007). […] Aliquots of the medium were used to measure insulin accumulated during the culture period using immune enzyme assay kits (Brunchwig, Basel, Switzerland). Furthermore, quantification of cytoplasmic nucleosomes, a direct indicator of apoptosis, was performed with the Cell Death Detection ELISA kit (Roche, Basel, Switzerland). Each condition was tested with 50 rat islets in duplicate and four independent experiments were performed. The results are provided as mean+/−sem and statistical analyses were performed using one-way ANOVA with Bonferroni and Dunnett post-hoc tests.
The conditions without cytokines allowed the analysis of the specific effect of the compound on islets while the combination of the drug with cytokines allowed the study of the effect of Imeglimin on islets under an inflammatory stress. To measure cell death in islets, quantification of cytoplasmic nucleosomes in islet cells, a consequence of DNA fragmentation during apoptosis (Robertson et al., 2000), was performed. […] Furthermore, a negative control and a positive control were added to the conditions with and without cytokines to test the effectiveness of the protocol. […] The results of the quantification of cell death for each condition are presented on FIG. 1.

[1] = with cytokines (TNF-alpha, IL-1beta, INF-gamma each 2 ng/ml, 24 hours), 100 μM

Compound | protective properties against apoptosis on cultured rat islets (basal and inflammation-like apoptosis) | protection of islets from the cytokine stress (both doses (100 μM and 1 mM), cytokine cocktail 24 hours) | less apoptosis than cytokine-stressed islets [1] | less apoptosis than untreated islets [1] | less apoptosis than cytokine-stressed islets (with cytokines, 1 mM) | less apoptosis than untreated islets (with cytokines, 1 mM) | potency relative to Exendin-4 (more potent) (with cytokines, lower concentration tested (100 μM) vs Exe-4 10 nM) | level of protection relative to the Exendin-4 level (without cytokines, 100 μM vs Exe-4 10 nM) | less apoptosis than untreated islets (without cytokines, 100 μM, 24 hours culture) | drop in apoptosis vs cytokine-stressed islets (with cytokines, Exe-4 10 nM) | drop in apoptosis vs untreated islets (with cytokines, Exe-4 10 nM) | decrease in cell death (without cytokines, Exe-4 10 nM, vs untreated islets)
CC1N=C(N)NC(N(C)C)=N1.Cl (single isomer, unassigned; (+)) [(+)-2-amino-3,6-dihydro-4-dimethylamino-6-methyl-1,3,5-triazine hydrochloride] | protective properties against basal and inflammation-like apoptosis | completely protected | 37% | 29% | 25% | 16% | ~50% | two thirds | 10% | – | – | –
Exendin-4 [reference compound] | – | – | – | – | – | – | – | – | – | 29% | 20% | 16%
